Measurements taken from US11339193B2, “CDP protein secretion inhibitors” (KEZAR LIFE SCIENCES, priority 2018, dated 2022).
pEC50, pIC50: −log10 of the molar value. Square brackets hold non-standard residues; d marks the D form. Peptide text beside a SMILES is read from it. NMeTrp(1-(4-Br-benzyl)) = CN[C@@H](Cc1cn(Cc2ccc(Br)cc2)c2ccccc12)C(=O)O; Butanoyl(2R-oxy,4-CN) = N#CCC[C@@H](O)C(=O)O; Nva(5,5,5-F3) = N[C@@H](CCC(F)(F)F)C(=O)O; Abu(4,4,4-F3) = N[C@@H](CC(F)(F)F)C(=O)O; NMeBta = CN[C@@H](Cc1csc2ccccc12)C(=O)O; Ala(cPr) = N[C@@H](CC1CC1)C(=O)O; NMeL = CN[C@@H](CC(C)C)C(=O)O; NMeA = CN[C@@H](C)C(=O)O

How the values were obtained:
Type in all cases: cell-based
[1] = tested on: PD1-ss+10aa/Gaussia Luciferase; assay: Dox induced PD1-ss-Gluc assay; settings: Flp-In 293 T-REx cells, doxycycline, 24 hours; read-out: PD1ss Gluc IC50
Summary of the method: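 Stable Flp-In 293 T-REx line expressing doxycycline-inducible Gaussia luciferase fused to the PD1 signal sequence plus 10 amino acids. Cells plated the day before, then exposed to compound dilutions in DMSO/media containing doxycycline at 37 °C, 5% CO2.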

[2] = tested on: TNFα-FL/Gaussia Luciferase; assay: Dox induced TNFα-FL-Gluc assay; settings: Flp-In 293 T-REx cells, doxycycline, 24 hours; read-out: TNFa FL Gluc IC50
Summary of the method: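 Stable Flp-In 293 T-REx line expressing full-length TNFα (aa 1-233) fused at its C-terminus to Gaussia luciferase under doxycycline-inducible control. Cells plated the day before, then given compound dilutions in DMSO/media containing doxycycline and incubated at 37 °C, 5% CO2.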

[3] = tested on: NCI-H929 multiple myeloma cell line; assay: H929 assay (cell viability, Celltiter-Glo); settings: Homo sapiens, NCI-H929; 48 hours, cell viability; read-out: H929 EC50
Summary of the method: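 Cells plated in RPMI 1640 with 10% FBS and 2 mM glutamine, treated with compound dilutions in DMSO/media. Incubation 48 h at 37° C, 5% CO2. Viability from luciferase luminescence signal.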

[4] = tested on: Prl-ss+10aa/Gaussia Luciferase; assay: Prl-ss-Gluc assay (constitutively active or 24 hr Dox inducible); settings: Flp-In 293 T-REx cells, 24 hours; read-out: Prl IC50
Summary of the method: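 Stable Flp-In 293 T-REx lines express Prl signal sequence+10aa fused to Gaussia luciferase, either constitutively (pcDNA5/FRT) or under the T-REx promoter (pcDNA5/FRT/TO). Cells plated the day before; compounds in DMSO/media (with doxycycline for the inducible line, 24 h) incubated at 37 °C, 5% CO2.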

[5] = tested on: VCAMss+10aa/Gaussia Luciferase; assay: VCAM-ss-Gluc assay (constitutively active or Dox induced); settings: Flp-In 293 T-REx cells, 24 hours
Method: Assays Constitutively Active VCAM-ss-Gluc Assay
Transfected cells were selected for resistance to the selectable markers Hygromycin and Blasticidin to create a stable cell line that constitutively expressed the VCAMss+ 10aa/Gaussia Luciferase fusion protein. The day before assay, cells were trypsinized and plated in 384-well tissue culture plates. The next day, culture media was removed from the wells and replaced with fresh media. Compound dilutions in DMSO/media were added to the wells and incubated at 37° C., 5% CO2.
Dox Induced VCAM-ss-Gluc Assay
Transfected cells were selected for resistance to the selectable markers Hygromycin and Blasticidin to create a stable cell line that contained the VCAMss+10aa/Gaussia Luciferase cDNA insert whose expression was regulated under the T-REx™ system. The day before assay, cells were trypsinized and plated in 384-well tissue culture plates. The next day, compound dilutions in DMSO/media containing doxycycline were added to the wells and incubated at 37° C., 5% CO2.

[6] = tested on: HER3ss-Gluc; assay: HER3ss assay; settings: HEK-293T T-rex cells, transient transfection, doxycycline, 24 h; read-out: HER3 ss IC50
Summary of the method: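 HEK-293T T-REx cells were transiently transfected with HER3 signal sequence (plus four mature-domain residues) fused upstream of mature Gaussia luciferase. Cells were induced with doxycycline (1 μg/ml) and exposed to increasing compound concentrations for 24 h, then secreted luciferase in the conditioned medium was read by luminescence.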

[7] = tested on: BT474 breast tumor cell line; assay: BT474 assay (Alamar blue); settings: Homo sapiens, BT-474, 72 h
Method: BT474 is a human breast tumor cell line. JJN3 is a human plasma cell leukemia cell line. […] Cells were seeded at 100 000 cells/mL. Aliquots of 5000 cells (50 μL) were added to each well in black, clear bottom 96-well plates. Compounds or control (50 uL of 1% DMSO in cell culture medium) were added to the cells to the indicated final concentrations and cells were incubated for 72 h (unless otherwise specified). After incubation was complete, Alamar blue (10 uL of a 1 mg/mL solution) was added to each well and plates were incubated for 5 h. Fluorescence was then measured (excitation 545 nm, emission 590 nm) and is reported as […] normalized to DMSO control.

[8] = tested on: JJN3 plasma cell leukemia cell line; assay: JJN-3 assay (Alamar blue); settings: Homo sapiens, 72 h
Summary of the method: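 For both lines, 5000 cells/well were exposed to compound or a 1% DMSO-medium control for 72 h unless otherwise specified. Signal was normalized to the DMSO control.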

Row | SMILES | pIC50 [1] | pIC50 [2] | pEC50 [3] | pIC50 [4] | pIC50 [5] | pIC50 [6] | pEC50 [7] | pEC50 [8]
1 | CC(C)C[C@@H]1NC(=O)[C@H](Cc2cn(Cc3ccc(F)c(F)c3)c3ccccc23)N(C)C(=O)[C@H](CC(C)C)NC(=O)[C@H](CC(C)C)N(C)C(=O)[C@H](CC(C)C)NC(=O)[C@@H](CCC#N)OC(=O)[C@H](C)N(C)C1=O [C-28] (HELM PEPTIDE1{L.[meA].[N#CCC[C@@H](O[*:1])C(=O)[*:2]].L.[meL].L.[CN([C@@H](Cc1cn(Cc2ccc(F)c(F)c2)c2ccccc12)C(=O)[*:2])[*:1]]}$PEPTIDE1,PEPTIDE1,1:R1-7:R2$$$V2.0) | 7.57 | 6.90 | 6.21 | 6.37 | 7.21 | 7.22 | 6.03 | 6.85
2 | CC(C)C[C@@H]1NC(=O)[C@H](Cc2csc3ccccc23)N(C)C(=O)[C@H](CC(C)C)NC(=O)[C@H](CC(C)C)N(C)C(=O)[C@H](CC(C)C)NC(=O)[C@@H](CCC#N)OC(=O)[C@H](C)N(C)C1=O [C-29] (HELM PEPTIDE1{L.[meA].[N#CCC[C@@H](O[*:1])C(=O)[*:2]].L.[meL].L.[CN([C@@H](Cc1csc2ccccc12)C(=O)[*:2])[*:1]]}$PEPTIDE1,PEPTIDE1,1:R1-7:R2$$$V2.0) | 7.00 | 6.50 | 5.58 | 5.47 | 7.59 | 7.66 | 5.87 | 6.50
3 | CC(C)C[C@@H]1NC(=O)[C@H](Cc2cn(Cc3cncc(F)c3)c3ccccc23)N(C)C(=O)[C@H](CC(C)C)NC(=O)[C@H](CC(C)C)N(C)C(=O)[C@H](CC(C)C)NC(=O)[C@@H](CCC#N)OC(=O)[C@H](C)N(C)C1=O [C-35] (HELM PEPTIDE1{L.[meA].[N#CCC[C@@H](O[*:1])C(=O)[*:2]].L.[meL].L.[CN([C@@H](Cc1cn(Cc2cncc(F)c2)c2ccccc12)C(=O)[*:2])[*:1]]}$PEPTIDE1,PEPTIDE1,1:R1-7:R2$$$V2.0) | 6.97 | 6.43 | 5.55 | 5.90 | 6.68 | 6.90 | 5.90 | 6.62
4 | CC(C)C[C@@H]1NC(=O)[C@H](Cc2cn(Cc3ccc(F)nc3)c3ccccc23)N(C)C(=O)[C@H](CC(C)C)NC(=O)[C@H](CC(C)C)N(C)C(=O)[C@H](CC(C)C)NC(=O)[C@@H](CCC#N)OC(=O)[C@H](C)N(C)C1=O [C-36] (HELM PEPTIDE1{L.[meA].[N#CCC[C@@H](O[*:1])C(=O)[*:2]].L.[meL].L.[CN([C@@H](Cc1cn(Cc2ccc(F)nc2)c2ccccc12)C(=O)[*:2])[*:1]]}$PEPTIDE1,PEPTIDE1,1:R1-7:R2$$$V2.0) | 7.03 | 6.45 | 5.54 | 5.96 | 6.45 | 6.46 | 5.81 | 6.54
5 | CC(C)C[C@@H]1NC(=O)[C@H](Cc2cn(Cc3ccc(Br)cc3)c3ccccc23)N(C)C(=O)[C@H](CC(C)C)NC(=O)[C@H](CC(C)C)N(C)C(=O)[C@H](CC2CC2)NC(=O)[C@@H](CCC#N)OC(=O)[C@H](C)N(C)C1=O [C-38] (cyclo([Ala(cPr)][NMeL]L[NMeTrp(1-(4-Br-benzyl))]L[NMeA][Butanoyl(2R-oxy,4-CN)])) | 6.98 | 6.41 | 5.43 | 5.21 | 6.49 | 6.50 | 5.41 | 6.02
6 | CC(C)C[C@@H]1NC(=O)[C@H](CC(C)C)N(C)C(=O)[C@H](CC(F)(F)F)NC(=O)[C@@H](CCC#N)OC(=O)[C@H](C)N(C)C(=O)[C@H](CCC(F)(F)F)NC(=O)[C@H](Cc2csc3ccccc23)N(C)C1=O [C-49] (cyclo(L[NMeBta][Nva(5,5,5-F3)][NMeA][Butanoyl(2R-oxy,4-CN)][Abu(4,4,4-F3)][NMeL])) | 6.77 | 6.26 | 5.47 |  | 7.66 | 7.77 | 5.75 | 6.21
